Assay results as given in patent US20160159816A1, “SUBSTITUTED THIENOPYRIMIDINES AND PHARMACEUTICAL USE THEREOF” (BAYER PHARMA AKTIENGESELLSCHAFT, priority 2013, published 2016).

target: T1, human full-length MKNK1 (Homo sapiens, UniProt Q9BUB5, T385D); experiment: MKNK1 kinase high ATP assay (TR-FRET); type: biochemical; conditions: high ATP (2 mM), after preincubation with MKNK1; compounds of the present invention (Table 1a)
T1 construct: GST (N); purchased Carna Biosciences 02-145; host or cells: insect cells, baculovirus expression system
T1 sequence (Q9BUB5 1-424 isoform Q9BUB5-2 T344D): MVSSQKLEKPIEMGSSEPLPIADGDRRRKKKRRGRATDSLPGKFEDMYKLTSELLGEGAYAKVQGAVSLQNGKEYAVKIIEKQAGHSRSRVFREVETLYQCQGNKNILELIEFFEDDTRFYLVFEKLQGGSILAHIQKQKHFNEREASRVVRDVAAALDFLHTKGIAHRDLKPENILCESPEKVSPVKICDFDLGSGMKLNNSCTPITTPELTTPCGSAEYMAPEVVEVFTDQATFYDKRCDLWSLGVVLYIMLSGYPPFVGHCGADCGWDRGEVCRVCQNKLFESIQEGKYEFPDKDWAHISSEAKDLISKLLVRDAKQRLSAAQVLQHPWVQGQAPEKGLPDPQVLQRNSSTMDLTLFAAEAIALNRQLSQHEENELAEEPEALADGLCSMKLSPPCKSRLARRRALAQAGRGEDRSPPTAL
Protocol: MKNK1-inhibitory activity at high ATP of compounds of the present invention after their preincubation with MKNK1 was quantified employing the TR-FRET-based MKNK1 high ATP assay as described in the following paragraphs.
A recombinant fusion protein of Glutathione-S-Transferase (GST, N-terminally) and human full-length MKNK1 (amino acids 1-424 and T344D of accession number BAA 19885.1), expressed in insect cells using baculovirus expression system and purified via glutathione sepharose affinity chromatography, was purchased from Carna Biosciences (product no 02-145) and used as enzyme. As substrate for the kinase reaction the biotinylated peptide biotin-Ahx-IKKRKLTRRKSLKG (C-terminus in amide form) was used, which can be purchased e.g. from the company Biosyntan (Berlin-Buch, Germany).
For the assay 50 nL of a 100 fold concentrated solution of the test compound in DMSO was pipetted into a black low volume 384 well microtiter plate (Greiner Bio-One, Frickenhausen, Germany), 2 μL of a solution of MKNK1 in aqueous assay buffer [50 mM HEPES pH 7.5, 5 mM MgCl2, 1.0 mM dithiothreitol, 0.005% (v/v) Nonidet-P40 (Sigma)] was added and the mixture was incubated for 15 min at 22° C. to allow pre-binding of the test compounds to the enzyme before the start of the kinase reaction. Then the kinase reaction was started by the addition of 3 μL of a solution of adenosine-tri-phosphate (ATP, 3.3 mM=>final conc. in the 5 μL assay volume is 2 mM) and substrate (0.1 μM=>final conc. in the 5 μL assay volume is 0.06 μM) in assay buffer and the resulting mixture was incubated for a reaction time of 30 min at 22° C. The concentration of MKNK1 was adjusted depending of the activity of the enzyme lot and was chosen appropriate to have the assay in the linear range, typical concentrations were in the range of 0.003 μg/mL. The reaction was stopped by the addition of 5 μL of a solution of TR-FRET detection reagents (5 nM streptavidine-XL665 [Cisbio Bioassays, Codolet, France] and 1 nM anti-ribosomal protein […] (pSer236)-antibody from Invitrogen [#44921G] and 1 nM LANCE EU-W1024 labeled ProteinG [Perkin-Elmer, product no. AD0071]) in an aqueous EDTA-solution (100 mM EDTA, 0.1% (w/v) bovine serum albumin in 50 mM HEPES pH 7.5).
The resulting mixture was incubated for 1 h at 22° C. to allow the formation of complex between the phosphorylated biotinylated peptide and the detection reagents. Subsequently the amount of phosphorylated substrate was evaluated by measurement of the resonance energy transfer from the Eu-chelate to the streptavidine-XL. Therefore, the fluorescence emissions at 620 nm and 665 nm after excitation at 350 nm were measured in a TR-FRET reader, e.g. a Rubystar (BMG Labtechnologies, Offenburg, Germany) or a Viewlux (Perkin-Elmer). The ratio of the emissions at 665 nm and at […] was taken as the measure for the amount of phosphorylated substrate. The data were normalised (enzyme reaction without inhibitor=0% inhibition, all other assay components but no enzyme=100% inhibition). […] Table 1a lists MKNK1 high ATP IC50 values of some compounds of the present invention.

SMILES | IC50 [nM]
COCC1(OC)CCc2c(sc3ncnc(Nc4cc5cn[nH]c5cc4Cl)c23)C1 (racemic) [Example 31, (RS)—N-(6-Chloro-1H-indazol-5-yl)-7-methoxy-7-(methoxymethyl)-5,6,7,8-tetrahydro[1]benzothieno[2,3-d]pyrimidin-4-amine] | 149
COCC1(OC)CCc2c(sc3ncnc(Nc4ccc5[nH]ncc5c4)c23)C1 (racemic) [Example 37, (7RS)—N-(1H-Indazol-5-yl)-7-methoxy-7-(methoxymethyl)-5,6,7,8-tetrahydro[1]benzothieno[2,3-d]pyrimidin-4-amine] | 47.8
OCc1cnnn1C[C@@H]1CCc2c(sc3ncnc(Nc4ccc5[nH]ncc5c4)c23)C1 (single isomer, unassigned) [Example 33, (1-{[(7R or 7S)-4-(1H-Indazol-5-ylamino)-5,6,7,8-tetrahydro[1]benzothieno[2,3-d]pyrimidin-7-yl]methyl}-1H-1,2,3-triazol-5-yl)methanol] | 16.9
COCC1(OC)CCc2c(sc3ncnc(Nc4ccc5[nH]ncc5c4)c23)C1 (single isomer, unassigned) [Example 38, (7R) or (7S) N-(1H-Indazol-5-yl)-7-methoxy-7-(methoxymethyl)-5,6,7,8-tetrahydro[1]benzothieno[2,3-d]pyrimidin-4-amine] | 106
COCC1(OC)CCc2c(sc3ncnc(Nc4ccc5[nH]ncc5c4)c23)C1 (single isomer, unassigned) [Example 39, (7S) or (7R) N-(1H-Indazol-5-yl)-7-methoxy-7-(methoxymethyl)-5,6,7,8-tetrahydro[1]benzothieno[2,3-d]pyrimidin-4-amine] | 69.3
COCC1(OC)CCc2c(sc3ncnc(Nc4cc5cn[nH]c5cc4Cl)c23)C1 (single isomer, unassigned) [Example 46, (7R) or (7S) N-(6-Chloro-1H-indazol-5-yl)-7-methoxy-7-(methoxymethyl)-5,6,7,8-tetrahydro[1]benzothieno[2,3-d]pyrimidin-4-amine] | 89.2
COCC1(OC)CCc2c(sc3ncnc(Nc4cc5cn[nH]c5cc4Cl)c23)C1 (single isomer, unassigned) [Example 47, (7S) or (7R) N-(6-Chloro-1H-indazol-5-yl)-7-methoxy-7-(methoxymethyl)-5,6,7,8-tetrahydro[1]benzothieno[2,3-d]pyrimidin-4-amine] | 165
COc1cc2[nH]ncc2cc1Nc1ncnc2sc3c(c12)CCCC3 [Example 2, N-(6-methoxy-1H-indazol-5-yl)-5,6,7,8-tetrahydro[1]benzothieno[2,3-d]pyrimidin-4-amine] | 13.5
c1nc(Nc2ccc3[nH]ncc3c2)c2c3c(sc2n1)CCCC3 [Example 3, N-(1H-Indazol-5-yl)-5,6,7,8-tetrahydro[1]benzothieno[2,3-d]pyrimidin-4-amine] | 18.5
COc1cc2[nH]ncc2cc1Nc1ncnc2sc3c(c12)CCC1(C3)OCCO1 [Example 24, N-(6-Methoxy-1H-indazol-5-yl)-5,8-dihydro-6H-spiro[1-benzothieno[2,3-d]pyrimidine-7,2′-[1,3]dioxolan]-4-amine] | 4.8

Continued, values first:

IC50 [nM] | SMILES
89.4 | COCC1(OC)CCc2c(sc3ncnc(Nc4cc5cn[nH]c5cc4F)c23)C1 (racemic) [Example 30, (RS)—N-(6-Fluoro-1H-indazol-5-yl)-7-methoxy-7-(methoxymethyl)-5,6,7,8-tetrahydro[1]benzothieno[2,3-d]pyrimidin-4-amine]
9.1 | COCC1(OC)CCc2c(sc3ncnc(Nc4cc5cn[nH]c5cc4OC)c23)C1 (racemic) [Example 32, (RS)-7-Methoxy-N-(6-methoxy-1H-indazol-5-yl)-7-(methoxymethyl)-5,6,7,8-tetrahydro[1]benzothieno[2,3-d]pyrimidin-4-amine]
220 | CN(C)C1CCc2c(sc3ncnc(Nc4ccc5[nH]ncc5c4)c23)C1 (racemic) [Example 35, (RS)—N^4-(1H-Indazol-5-yl)-N^7,N^7-dimethyl-5,6,7,8-tetrahydro[1]benzothieno[2,3-d]pyrimidine-4,7-diamine]
14.1 | COc1cc2[nH]ncc2cc1Nc1ncnc2sc3c(c12)CCC(N(C)C)C3 (racemic) [Example 36, (RS)—N^4-(6-Methoxy-1H-indazol-5-yl)-N^7,N^7-dimethyl-5,6,7,8-tetrahydro[1]benzothieno[2,3-d]pyrimidine-4,7-diamine]
20.5 | OCc1cn(C[C@@H]2CCc3c(sc4ncnc(Nc5ccc6[nH]ncc6c5)c34)C2)nn1 (single isomer, unassigned) [Example 34, (1-{[(7R or 7S)-4-(1H-Indazol-5-ylamino)-5,6,7,8-tetrahydro[1]benzothieno[2,3-d]pyrimidin-7-yl]methyl}-1H-1,2,3-triazol-4-yl)methanol]
487 | COCC1(OC)CCc2c(sc3ncnc(Nc4cc5cn[nH]c5cc4C)c23)C1 (single isomer, unassigned) [Example 40, (7R) or (7S) 7-Methoxy-7-(methoxymethyl)-N-(6-methyl-1H-indazol-5-yl)-5,6,7,8-tetrahydro[1]benzothieno[2,3-d]pyrimidin-4-amine]
371 | COCC1(OC)CCc2c(sc3ncnc(Nc4cc5cn[nH]c5cc4C)c23)C1 (single isomer, unassigned) [Example 41, (7S) or (7R) 7-Methoxy-7-(methoxymethyl)-N-(6-methyl-1H-indazol-5-yl)-5,6,7,8-tetrahydro[1]benzothieno[2,3-d]pyrimidin-4-amine]
10.1 | COCC1(OC)CCc2c(sc3ncnc(Nc4cc5cn[nH]c5cc4OC)c23)C1 (single isomer, unassigned) [Example 42, (7R) or (7S) 7-Methoxy-N-(6-methoxy-1H-indazol-5-yl)-7-(methoxymethyl)-5,6,7,8-tetrahydro[1]benzothieno[2,3-d]pyrimidin-4-amine]
12.5 | COCC1(OC)CCc2c(sc3ncnc(Nc4cc5cn[nH]c5cc4OC)c23)C1 (single isomer, unassigned) [Example 43, (7S) or (7R) 7-Methoxy-N-(6-methoxy-1H-indazol-5-yl)-7-(methoxymethyl)-5,6,7,8-tetrahydro[1]benzothieno[2,3-d]pyrimidin-4-amine]
74.3 | COCC1(OC)CCc2c(sc3ncnc(Nc4cc5cn[nH]c5cc4F)c23)C1 (single isomer, unassigned) [Example 44, (7R) or (7S) N-(6-Fluoro-1H-indazol-5-yl)-7-methoxy-7-(methoxymethyl)-5,6,7,8-tetrahydro[1]benzothieno[2,3-d]pyrimidin-4-amine]
89 | COCC1(OC)CCc2c(sc3ncnc(Nc4cc5cn[nH]c5cc4F)c23)C1 (single isomer, unassigned) [Example 45, (7S) or (7R) N-(6-Fluoro-1H-indazol-5-yl)-7-methoxy-7-(methoxymethyl)-5,6,7,8-tetrahydro[1]benzothieno[2,3-d]pyrimidin-4-amine]
2.4 | COc1cc2[nH]ncc2cc1Nc1ncnc2sc3c(c12)CC[C@](C)(C(=O)N(C)C)C3 [Example 48, (7S) 4-[(6-Methoxy-1H-indazol-5-yl)amino]-N,N,7-trimethyl-5,6,7,8-tetrahydro[1]benzothieno[2,3-d]pyrimidine-7-carboxamide]
13.3 | COc1cc2[nH]ncc2cc1Nc1ncnc2sc3c(c12)CC[C@@](C)(C(=O)N(C)C)C3 [Example 49, (7R) 4-[(6-Methoxy-1H-indazol-5-yl)amino]-N,N,7-trimethyl-5,6,7,8-tetrahydro[1]benzothieno[2,3-d]pyrimidine-7-carboxamide]
19.6 | CC[C@@]1(C(=O)N(C)C)CCc2c(sc3ncnc(Nc4cc5cn[nH]c5cc4OC)c23)C1 [Example 50, (7R) 7-Ethyl-4-[(6-methoxy-1H-indazol-5-yl)amino]-N,N-dimethyl-5,6,7,8-tetrahydro[1]benzothieno[2,3-d]pyrimidine-7-carboxamide]
